Like-named read-outs stand apart in the source and are kept apart here.
Key:
[1] = tested on: rhinoviruses; conditions: literature; interaction with proteins of the virus capsid; cited from earlier work
[2] = tested on: rhinovirus serotype 89; test: Protection of HeLa cells from rhinovirus-induced cytopathogenicity (MTT), serotype 89; conditions: Enterovirus, 72 h, read-out: MIC, serotype 89
[3] = tested on: rhinovirus serotype 30; test: Protection of HeLa cells from rhinovirus-induced cytopathogenicity (MTT), serotype 30; conditions: Enterovirus, 72 h, read-out: MIC, serotype 30
[4] = tested on: rhinovirus serotype 2; test: Protection of HeLa cells from rhinovirus-induced cytopathogenicity (MTT), serotype 2; conditions: Enterovirus, 72 h, read-out: MIC, serotype 2
[5] = tested on: rhinovirus serotype 50; test: Protection of HeLa cells from rhinovirus-induced cytopathogenicity (MTT), serotype 50; conditions: Enterovirus, 72 h, read-out: MIC, serotype 50
[6] = tested on: rhinovirus serotype 86; test: Protection of HeLa cells from rhinovirus-induced cytopathogenicity (MTT), serotype 86; conditions: Enterovirus, 72 h, read-out: MIC, serotype 86
[7] = tested on: rhinovirus serotype 21; test: Protection of HeLa cells from rhinovirus-induced cytopathogenicity (MTT), serotype 21; conditions: Enterovirus, 72 h, read-out: MIC, serotype 21
[8] = tested on: different rhinoviruses serotypes; test: Protection of HeLa cells from rhinovirus-induced cytopathogenicity (MTT), all serotypes of Table 3; conditions: for EC50: Enterovirus, HeLa, 72 h, read-out: MIC, summary over the serotypes; for S.I. / effectiveness and selectivity as rhinoviruses inhibiting agent: Table 3; for S.I.: nine serotypes, HeLa cells
[9] = tested on: HRV-14; conditions: Table 1; literature value; read-out: MIC, HRV-14 (comparison compounds); cited from earlier work
[10] = tested on: rhinovirus serotype 15; test: Protection of HeLa cells from rhinovirus-induced cytopathogenicity (MTT), serotype 15; conditions: Enterovirus, 72 h, read-out: MIC, serotype 15
[11] = tested on: rhinovirus serotype 22; test: Protection of HeLa cells from rhinovirus-induced cytopathogenicity (MTT), serotype 22; conditions: Enterovirus, 72 h, read-out: MIC, serotype 22
[12] = tested on: HRV-14; test: Viral plaque reduction, HRV-14 on HeLa cells; type: cell-based, human rhinovirus; conditions: for S.I. (Selectivity Index): MTL/MIC ratio / S.I. (Selectivity Index): ratio MTL/MIC: HeLa MTL / HRV-14 MIC; for EC50: Rhinovirus B, HeLa cells, read-out: MIC, HRV-14; for activity and selectivity to HRV-14 compared with the two previously known compounds: Table 1
[13] = tested on: rhinovirus serotype 14; test: Protection of HeLa cells from rhinovirus-induced cytopathogenicity (MTT), serotype 14; conditions: Enterovirus, 72 h, read-out: MIC, serotype 14
[14] = in vitro; conditions: human, hela cells
[15] = tested on: Herpes Simplex Virus type 1 (HSV-1); test: Viral plaque reduction, HSV-1 on Vero cells; type: cell-based; conditions: Human alphaherpesvirus 1, Vero, read-out: MIC, HSV-1
[16] = tested on: Vesicular Stomatitis Virus (VSV); test: microbe, parasite or virus in culture; type: cell-based; conditions: Vero, read-out: MIC, VSV
[17] = tested on: Poliomyelitis Virus type 1 (Sb-1); test: microbe, parasite or virus in culture; type: cell-based; conditions: Vero, read-out: MIC, Sb-1
[18] = in vitro; conditions: monkey, vero cells
[19] = tested on: Coxsackie Virus B1 (Coxs); test: Viral plaque reduction, Coxs on Vero cells; type: cell-based; conditions: Table 1, 50% plaque reduction, 37° C, read-out: MIC, Coxs
[20] = tested on: Virus Vaccinicum (VV); test: Viral plaque reduction, VV on Vero cells; type: cell-based; conditions: Table 1, 50% plaque reduction, 37° C, read-out: MIC, VV
[21] = tested on: HeLa cells
[22] = Table 2, 50% reduction of HRV14 plaques
[23] = HRV14, Table 1 and text, 50% plaque reduction, 33° C

| Compound | EC50 [2] [µM] | EC50 [3] [µM] | EC50 [4] [µM] | EC50 [5] [µM] | EC50 [6] [µM] | EC50 [7] [µM] | EC50 [8] [µM] | S.I. [8] | EC50 [10] [µM] | EC50 [11] [µM] | S.I. (Selectivity Index): MTL/MIC ratio ([12]; Table 1 and text) | S.I. (Selectivity Index): ratio MTL/MIC ([12]; Table 2) | EC50 [13] [µM] | MNTC [14] [µM] | EC50 [15] [µM] | EC50 [16] [µM] | EC50 [17] [µM] | MNTC [18] [µM] | EC50 [12, 23] [µM] | EC50 [19] [µM] | further results |
| --- | --- | --- | --- | --- | --- | --- | --- | --- | --- | --- | --- | --- | --- | --- | --- | --- | --- | --- | --- | --- | --- |
| CCCCCCCCCCCCCCOc1ccc(C(C)=O)o1 [RMI-15,731, 1-[5-(tetradecyloxy)-2-furanyl]ethanone] |  |  |  |  |  |  |  |  |  |  |  |  |  |  |  |  |  |  |  |  | inhibition of rhinoviruses [1]: inhibit a wide range of rhinoviruses |
| Cc1cc(CCCCCCCOc2ccc(C3=NCCO3)cc2)on1 [WIN 51711, 5-{7-[4-(4,5-dihydro-2-oxazolyl)phenoxy]heptyl}-3-methyl-isoxazole, reference compound] | 0.9 | 1.7 | 1.7 | 2 | 0.06 | 0.6 | 1.2 | 23 | 0.3 | 3.5 | 45 | 45 | 0.6 |  |  |  |  |  |  |  | EC50 [9]: 0.4 µM; inhibition of rhinoviruses [1]: inhibit a wide range of rhinoviruses |
| CCOC(=O)c1ccc(OCCCCC(=O)c2cc(C=O)n(C)c2)cc1 [Compound 393, 4-[5-[4-(ethoxycarbonyl)phenoxy]pentanoyl]-1-methyl-1H-pyrrole-, -2-carboxaldeide] | 0.2 | 1.1 | 0.5 | 0.8 | 0.14 | 2.2 | 1.4 | 36 | 2.2 | 1.1 |  | 36 | 2 | 50 |  |  |  |  |  |  | EC50 [12, 22]: 1.4 µM |
| Cc1ccc(C(=O)CCCCOc2ccc(C3=NCCO3)cc2)s1 [Compound 522] | 0.3 | 1.4 | 1.1 | 1.1 | 0.14 | 1.7 | 2 | > 145 | 0.3 | 11.6 |  | > 100 | 0.3 | > 291 |  |  |  |  |  |  | EC50 [12, 22]: 2.9 µM |
| O=C(CCCCOc1ccc(C2=NCCO2)cc1)c1ccc(Cl)s1 [Compound 366] |  |  |  |  |  |  |  |  |  |  |  |  |  | > 410 | > 275 | > 275 | 200 | > 275 | 0.05 | > 275 | EC50 [20]: > 275 µM; cytotoxicity levels [21]: low cytotoxicity levels |
| Cn1cc(C(=O)CCCCOc2ccc(C3=NCCO3)cc2)cc1C=O [Compound 395] |  |  |  |  |  |  |  |  |  |  | > 85 |  |  | > 425 | > 280 | > 280 | > 280 | > 280 | 5 | > 280 | activity and selectivity to HRV-14 compared with the two previously known compounds [12]: less effective, but even more selective to HRV-14; EC50 [20]: > 280 µM |
| Cn1cccc1C(=O)CCCCOc1ccc(C2=NCCO2)cc1 [Compound 414] |  |  |  |  |  |  |  |  |  |  | > 762 |  |  | > 610 | > 300 | > 300 | > 300 | > 300 | 0.8 | > 300 | EC50 [20]: > 300 µM; cytotoxicity levels [21]: low cytotoxicity levels |
| 4-ethoxy-2'-hydroxy-4', 6-dimethoxychalcone [RO 09-0410] |  |  |  |  |  |  |  |  |  |  |  |  |  |  |  |  |  |  |  |  | inhibition of rhinoviruses [1]: inhibit a wide range of rhinoviruses |
| Cc1csc(C(=O)CCCCOc2ccc(C3=NCCO3)cc2)c1 [Compound 529, 2-[5-[4-(4,5-Dihydro-2-oxazolyl)phenoxy]pentanoyl]-4-methylthiophene] | 2.9 | 5.8 | 2.9 | 4.3 | 0.9 | 5.8 | 4.1 | 71 | 0.2 | 11.6 |  | 42 | 1.1 | 291 |  |  |  |  |  |  | EC50 [12, 22]: 6.9 µM |
| CCOC(=O)c1ccc(OCCCCC(=O)c2ccc(Cl)s2)cc1 [Compound 360] | 0.3 | 0.05 | 0.1 | 0.4 | 0.3 |  | 0.76 | > 717 | 1.6 | 1.4 | > 272 |  | 2.7 | > 545 | > 190 | > 190 | 80 | > 190 | 2 | > 190 | effectiveness and selectivity as rhinoviruses inhibiting agent [8]: the most effective and selective; EC50 [20]: > 190 µM; cytotoxicity levels [21]: low cytotoxicity levels |
| Cn1cc(C(=O)CCCCOc2ccc(C(=O)O)cc2)cc1C=O [Compound 394] |  |  |  |  |  |  |  |  |  |  | > 87 |  |  | > 610 | > 380 | > 380 | > 380 | 380 | 7 | > 380 | activity and selectivity to HRV-14 compared with the two previously known compounds [12]: less effective, but even more selective to HRV-14; EC50 [20]: > 380 µM |
| CCOC(=O)c1ccc(OCCCCC(=O)c2ccc(C)s2)cc1 [Compound 514] | 0.3 | 0.14 | 0.5 | 0.4 | 0.14 | 0.1 | 0.63 | > 917 | 0.9 | 1.4 |  | > 170 | 1.7 | > 578 |  |  |  |  |  |  | effectiveness and selectivity as rhinoviruses inhibiting agent [8]: the most effective and selective; EC50 [12, 22]: 3.4 µM |

From patent US5278184A, “Synthetic derivatives of pyrrole and pyrrolidine suitable for the therapy of infections caused by rhinoviruses” (Repla Chemical Ltd., priority 1991, dated 1994)
